The text below walks through data of US11168073B2, “3,3-difluoroallylamines or salts thereof and pharmaceutical compositions comprising the same” (YUHAN CORPORATION, priority 2018, dated 2021).

Common to all, as to type: biochemical
The target of experiment [1] is T1, recombinant human MAO-B (monoamine oxidase-B) (Homo sapiens, UniProt P27338).
T1 construct: purchased Sigma-Aldrich
T1 sequence (P27338 1-520): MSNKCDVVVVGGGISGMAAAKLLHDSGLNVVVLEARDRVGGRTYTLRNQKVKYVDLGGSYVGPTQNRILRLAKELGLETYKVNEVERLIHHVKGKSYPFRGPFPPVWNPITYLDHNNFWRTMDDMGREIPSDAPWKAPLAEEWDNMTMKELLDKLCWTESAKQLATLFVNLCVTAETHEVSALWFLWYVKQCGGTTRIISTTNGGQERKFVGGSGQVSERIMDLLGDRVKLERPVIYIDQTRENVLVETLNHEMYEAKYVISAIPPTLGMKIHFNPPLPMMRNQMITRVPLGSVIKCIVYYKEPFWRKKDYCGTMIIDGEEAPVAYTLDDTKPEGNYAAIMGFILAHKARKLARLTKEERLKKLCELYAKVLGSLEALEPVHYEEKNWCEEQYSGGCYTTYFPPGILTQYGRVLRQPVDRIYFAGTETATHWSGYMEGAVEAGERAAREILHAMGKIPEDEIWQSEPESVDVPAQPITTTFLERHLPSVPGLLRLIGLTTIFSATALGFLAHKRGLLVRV
In words: Activity evaluation on recombinant human MAO-B (Amplex Red/HRP-coupled assay, 1 mM benzylamine substrate). The conditions noted are these: read-out: Inhibitory Activity (IC50, nM) MAO-B. In short, it runs like this:
(§1)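 Using an HRP-coupled Amplex Red readout (544/590 nm, kinetic over 1–2 h), IC50 values were fitted by 4-parameter logistic model to percent decrease in signal rate against DMSO control. Compounds (1:3 dilutions, 8 points, <1% DMSO) sat 30 min at 37 °C with enzyme in pH 7.4 phosphate buffer before substrate, 200 uM Amplex Red and HRP were added.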

A further experiment addresses T2, recombinant human VAP-1 (Homo sapiens, UniProt Q16853).
T2 construct: purchased R&D systems
T2 sequence (Q16853 1-763): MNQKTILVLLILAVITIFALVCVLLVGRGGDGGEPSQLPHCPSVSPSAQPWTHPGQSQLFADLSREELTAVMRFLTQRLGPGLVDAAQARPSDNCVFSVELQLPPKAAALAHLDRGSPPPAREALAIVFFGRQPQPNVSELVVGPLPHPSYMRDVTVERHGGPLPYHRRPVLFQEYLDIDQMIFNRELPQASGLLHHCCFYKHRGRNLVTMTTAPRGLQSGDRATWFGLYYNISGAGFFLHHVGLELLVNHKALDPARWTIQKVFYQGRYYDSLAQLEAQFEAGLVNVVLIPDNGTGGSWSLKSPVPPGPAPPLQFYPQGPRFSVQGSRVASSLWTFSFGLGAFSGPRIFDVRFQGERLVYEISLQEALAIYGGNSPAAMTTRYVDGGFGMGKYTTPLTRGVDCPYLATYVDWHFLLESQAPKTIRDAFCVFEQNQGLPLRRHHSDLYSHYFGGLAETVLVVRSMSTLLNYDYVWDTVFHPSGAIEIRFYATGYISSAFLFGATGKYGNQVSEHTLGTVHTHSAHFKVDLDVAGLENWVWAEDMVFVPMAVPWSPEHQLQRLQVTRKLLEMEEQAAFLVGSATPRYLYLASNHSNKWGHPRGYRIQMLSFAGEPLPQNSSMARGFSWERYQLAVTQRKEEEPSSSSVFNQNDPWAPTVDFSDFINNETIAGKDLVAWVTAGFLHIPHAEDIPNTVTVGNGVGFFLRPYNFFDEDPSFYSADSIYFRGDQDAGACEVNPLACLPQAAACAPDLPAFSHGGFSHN
In words: Activity evaluation on recombinant human VAP-1 (Amplex Red/HRP-coupled hydrogen peroxide assay, benzylamine substrate). Particulars: read-out: Inhibitory Activity (IC50, nM) human VAP-1. In short, it runs like this:
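Hydrogen peroxide from benzylamine (1 mM) oxidation by human recombinant VAP-1 detected via HRP-coupled Amplex Red (200 uM) fluorescence, kinetic over 1–2 h. Enzyme and compound preincubated 30 min at 37 °C, pH 7.4 phosphate; 8-point dose response, signal-rate decrease versus DMSO control fitted to four-parameter logistic for IC50.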

Experiment [2] deals with T3, recombinant human MAO-A (monoamine oxidase-A) (Homo sapiens, UniProt P21397).
T3 construct: purchased Sigma-Aldrich
T3 sequence (P21397 1-527): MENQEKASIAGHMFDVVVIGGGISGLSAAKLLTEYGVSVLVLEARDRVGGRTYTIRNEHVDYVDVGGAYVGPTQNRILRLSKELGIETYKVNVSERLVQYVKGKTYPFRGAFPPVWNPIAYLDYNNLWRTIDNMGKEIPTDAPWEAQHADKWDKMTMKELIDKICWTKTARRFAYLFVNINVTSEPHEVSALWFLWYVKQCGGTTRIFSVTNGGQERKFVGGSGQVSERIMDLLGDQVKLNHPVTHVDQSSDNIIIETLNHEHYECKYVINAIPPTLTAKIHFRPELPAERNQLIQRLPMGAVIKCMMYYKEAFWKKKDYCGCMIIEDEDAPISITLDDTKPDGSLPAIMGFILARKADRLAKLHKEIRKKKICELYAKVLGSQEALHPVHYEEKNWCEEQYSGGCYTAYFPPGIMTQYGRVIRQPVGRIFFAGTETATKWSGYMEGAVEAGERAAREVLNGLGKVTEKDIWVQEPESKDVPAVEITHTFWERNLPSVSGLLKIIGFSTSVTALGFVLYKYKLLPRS
The experiment can be described thus: Activity evaluation on recombinant human MAO-A (Amplex Red/HRP-coupled assay, 0.5 mM tyramine substrate). The conditions noted are these: read-out: Inhibitory Activity (IC50, nM) MAO-A. The method, boiled down:
as §1

Experiment [3] addresses T4, recombinant human DAO (diamine oxidase) (Homo sapiens, UniProt P19801).
T4 construct: purchased R&D systems
T4 sequence (P19801 20-751): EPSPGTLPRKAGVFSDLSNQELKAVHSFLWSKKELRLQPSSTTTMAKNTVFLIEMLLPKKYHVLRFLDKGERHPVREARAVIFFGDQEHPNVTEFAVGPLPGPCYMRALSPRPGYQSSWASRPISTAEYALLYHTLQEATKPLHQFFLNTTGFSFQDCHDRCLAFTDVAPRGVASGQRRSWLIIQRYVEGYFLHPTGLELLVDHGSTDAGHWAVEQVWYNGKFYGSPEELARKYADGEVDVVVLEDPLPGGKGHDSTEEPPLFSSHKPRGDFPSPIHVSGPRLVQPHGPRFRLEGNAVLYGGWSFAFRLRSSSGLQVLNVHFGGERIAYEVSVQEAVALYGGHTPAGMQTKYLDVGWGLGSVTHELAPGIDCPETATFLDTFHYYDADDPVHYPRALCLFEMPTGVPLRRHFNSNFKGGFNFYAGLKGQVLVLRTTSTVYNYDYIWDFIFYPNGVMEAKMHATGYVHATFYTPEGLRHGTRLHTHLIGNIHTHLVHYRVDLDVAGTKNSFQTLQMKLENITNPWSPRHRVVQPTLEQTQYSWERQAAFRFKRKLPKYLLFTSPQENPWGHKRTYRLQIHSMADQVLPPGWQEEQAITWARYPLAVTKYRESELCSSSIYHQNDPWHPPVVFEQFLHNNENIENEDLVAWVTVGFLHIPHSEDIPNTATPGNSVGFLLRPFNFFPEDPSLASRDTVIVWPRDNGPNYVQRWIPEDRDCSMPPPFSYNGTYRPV
The experiment can be described thus: Activity evaluation on recombinant human DAO (Amplex Red/HRP-coupled assay, 1 mM putrescine substrate). The conditions noted are these: read-out: Inhibitory Activity (IC50, nM) DAO. The method, boiled down:
as §1

[4] abbreviates: recombinant human VAP-1, benzylamine substrate.
Setting [5] is: recombinant human VAP-1, 30 min preincubation at 37° C., 1 mM benzylamine.

Where a name gives a salt, the structure may show the parent alone. Read-outs that look alike come from different tables or passages of the source.

A word on the IC50: it is the concentration needed to halve the response being measured. Consider `CN(C)c1ccc(-c2ccc3sc(Cn4cnn(CC(CN)=C(F)F)c4=O)cc3c2)cn1` [Example 208, 2-[2-(aminomethyl)-3,3-difluoro-allyl]-4-[[5-[6-(dimethylamino)-3-pyridyl]benzothiophen-2-yl]methyl]-1,2,4-triazol-3-one Trifluoroacetate], for which the IC50 in experiment [1] (1 mM benzylamine substrate) is 42400 nM; at recombinant human VAP-1 (setting [4]) it was 2.5 nM; in experiment [2] (0.5 mM tyramine substrate), 89900 nM; in experiment [3] (1 mM putrescine substrate), more than 100000 nM.

On to `Cn1cc(C#Cc2ccc(Cn3cnn(CC(CN)=C(F)F)c3=O)s2)cn1` [Example 171, 2-[2-(aminomethyl)-3,3-difluoro-allyl]-4-[[5-[2-(1-methylpyrazol-4-yl)ethynyl]-2-thienyl]methyl]-1,2,4-triazol-3-one Trifluoroacetate], for which the IC50 was 50000 nM in experiment [1] (1 mM benzylamine), 1.8 nM on recombinant human VAP-1 (setting [5]), more than 100000 nM in experiment [2] (0.5 mM tyramine) and more than 100000 nM in experiment [3] (1 mM putrescine).

As for `Cc1cc(-c2ccc3c(c2)CN(C)C(=O)N3)cnc1-n1cnn(CC(CN)=C(F)F)c1=O` [Example 250, 6-[6-[1-[2-(aminomethyl)-3,3-difluoro-allyl]-5-oxo-1,2,4-triazol-4-yl]-5-methyl-3-pyridyl]-3-methyl-1,4-dihydroquinazolin-2-one Trifluoroacetate], the IC50 in experiment [1] (1 mM benzylamine substrate) is more than 100000 nM; on recombinant human VAP-1 (setting [4]), 0.2 nM; in experiment [2] (0.5 mM tyramine substrate) it was more than 100000 nM; in experiment [3] (1 mM putrescine substrate), 4300 nM.

`NCC(Cn1ncn(-c2ccc(Br)c(F)c2)c1=O)=C(F)F` [Example 4, 2-[2-(aminomethyl)-3,3-difluoro-allyl]-4-(4-bromo-3-fluoro-phenyl)-1,2,4-triazol-3-one Trifluoroacetate]: the IC50 is 2300 nM in experiment [1] (1 mM benzylamine), 4.2 nM at recombinant human VAP-1 (setting [5]), more than 100000 nM in experiment [2] (0.5 mM tyramine) and 58000 nM in experiment [3] (1 mM putrescine).

`CN(C)c1ccc(-c2ccc3cc(Cn4cnn(CC(CN)=C(F)F)c4=O)sc3c2)cn1` [Example 200, 2-[2-(aminomethyl)-3,3-difluoro-allyl]-4-[[6-[6-(dimethylamino)-3-pyridyl]benzothiophen-2-yl]methyl]-1,2,4-triazol-3-one Trifluoroacetate]: the IC50 in experiment [1] (1 mM benzylamine substrate) is 740 nM; at recombinant human VAP-1 (setting [4]), 1.9 nM; in experiment [2] (0.5 mM tyramine substrate), more than 100000 nM; in experiment [3] (1 mM putrescine substrate), more than 100000 nM.

Take `CCn1cc(-c2ccc(-n3cnn(CC(CN)=C(F)F)c3=O)c(F)c2)cn1` [Example 37, 2-[2-(aminomethyl)-3,3-difluoro-allyl]-4-[4-(1-ethylpyrazol-4-yl)-2-fluoro-phenyl]-1,2,4-triazol-3-one Trifluoroacetate]: the IC50 in experiment [1] (1 mM benzylamine) is 880 nM; on recombinant human VAP-1 (setting [5]), 0.5 nM; in experiment [2] (0.5 mM tyramine), more than 100000 nM; in experiment [3] (1 mM putrescine), 860 nM.

`NCC(Cn1ncn(-c2cccc(-c3ccc4c(c3)OCO4)c2)c1=O)=C(F)F` [Example 21, 2-[2-(aminomethyl)-3,3-difluoro-allyl]-4-[3-(1,3-benzodioxol-5-yl)phenyl]-1,2,4-triazol-3-one Trifluoroacetate]: the 50% inhibitory concentration (IC50) in experiment [1] (1 mM benzylamine) turned out to be 18000 nM; on recombinant human VAP-1 (setting [5]), 2.5 nM; in experiment [2] (0.5 mM tyramine) it was 36200 nM; in experiment [3] (1 mM putrescine) it was 6300 nM.

Consider `NCC(Cn1ncn(Cc2cccc(-c3ccc4c(c3)OCO4)c2)c1=O)=C(F)F` [Example 274, 2-[2-(aminomethyl)-3,3-difluoro-allyl]-4-[[3-(1,3-benzodioxol-5-yl)phenyl]methyl]-1,2,4-triazol-3-one Trifluoroacetate], for which the IC50 in experiment [1] (1 mM benzylamine substrate) was 125 nM; on recombinant human VAP-1 (setting [4]), 3.1 nM; in experiment [2] (0.5 mM tyramine substrate), more than 100000 nM; in experiment [3] (1 mM putrescine substrate) it was 54100 nM.

As to `Cc1cc(-c2ccnc(-n3cnn(CC(CN)=C(F)F)c3=O)c2)cc2c1NC(=O)CC2` [Example 59, 6-[2-[1-[2-(aminomethyl)-3,3-difluoro-allyl]-5-oxo-1,2,4-triazol-4-yl]-4-pyridyl]-8-methyl-3,4-dihydro-1H-quinolin-2-one Trifluoroacetate], the IC50 in experiment [1] (1 mM benzylamine) was more than 100000 nM; at recombinant human VAP-1 (setting [5]), 0.5 nM; in experiment [2] (0.5 mM tyramine) it was more than 100000 nM; in experiment [3] (1 mM putrescine), 84 nM.

For `NCC(Cn1ncn(Cc2cc(Br)cs2)c1=O)=C(F)F` [Example 98, 2-[2-(aminomethyl)-3,3-difluoro-allyl]-4-[(4-bromo-2-thienyl)methyl]-1,2,4-triazol-3-one Trifluoroacetate], the IC50 was 13900 nM in experiment [1] (1 mM benzylamine), 23 nM at recombinant human VAP-1 (setting [5]), more than 100000 nM in experiment [2] (0.5 mM tyramine) and 18600 nM in experiment [3] (1 mM putrescine).

In the case of `NCC(Cn1ncn(Cc2ccc(-c3ccc4c(c3)OCO4)s2)c1=O)=C(F)F` [Example 126, 2-[2-(aminomethyl)-3,3-difluoro-allyl]-4-[[5-(1,3-benzodioxol-5-yl)-2-thienyl]methyl]-1,2,4-triazol-3-one Trifluoroacetate], the IC50 in experiment [1] (1 mM benzylamine) was 760 nM; at recombinant human VAP-1 (setting [5]) it was 0.5 nM; in experiment [2] (0.5 mM tyramine), more than 100000 nM; in experiment [3] (1 mM putrescine) it was more than 100000 nM.
